From ChEMBL document CHEMBL1201862, “PubChem BioAssay data set” (2004)
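Cells were grown in 96-well plates and exposed to each compound for 48 hours at five concentrations; endpoints were interpolated linearly between bracketing concentrations, or set to the highest concentration if not reached. The concentration for 50% growth inhibition is given as GI50.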 Calls of active or inactive are those of the source. Cut-off read from the data, not from the text of the source: active = GI50 up to about 1.1 µM and inactive = higher.

Legend:
Test in all cases: inhibition of tumour cell growth, NCI panel, 48 h
[1] = tested on: LXFL 529
[2] = tested on: COLO 205
[3] = tested on: OVCAR-3
[4] = tested on: SNB-19
[5] = tested on: HOP-92
[6] = tested on: SNB-75
[7] = tested on: CCRF-CEM
[8] = tested on: ACHN
[9] = tested on: DMS-273
[10] = tested on: K562
[11] = tested on: IGROV-1
[12] = tested on: HOP-62
[13] = tested on: DMS-114
[14] = tested on: MOLT-4
[15] = tested on: NCI-H522
[16] = tested on: LOX IMVI
[17] = tested on: SF-539
[18] = tested on: Malme-3M
[19] = tested on: HOP-18
[20] = tested on: UACC-62
[21] = tested on: KM-20L2
[22] = tested on: M19-MEL
[23] = tested on: A549
[24] = tested on: UACC-257
[25] = tested on: A498
[26] = tested on: TK-10
[27] = tested on: HT-29
[28] = tested on: HCT-116
[29] = tested on: EKVX
[30] = tested on: SK-OV-3
[31] = tested on: SNB-78
[32] = tested on: SF-268
[33] = tested on: M14
[34] = tested on: SK-MEL-28
[35] = tested on: XF498
[36] = tested on: SR
[37] = tested on: KM12
[38] = tested on: SF-295
[39] = tested on: HL-60
[40] = tested on: SK-MEL-2
[41] = tested on: NCI-H460
[42] = tested on: HCC 2998
[43] = tested on: U-251
[44] = tested on: SN12C
[45] = tested on: 786-0
[46] = tested on: OVCAR-8
[47] = tested on: OVCAR-5
[48] = tested on: CAKI-1
[49] = tested on: HCT-15
[50] = tested on: DLD-1
[51] = tested on: UO-31
[52] = tested on: SK-MEL-5
[53] = tested on: OVCAR-4
[54] = tested on: NCI-H23
[55] = tested on: SW-620
[56] = tested on: RXF 393
[57] = tested on: RPMI-8226
[58] = tested on: NCI-H226

Measured: GI50

Cc1ccc2c(c1)NC(=O)C(N=[N+]=[N-])(c1ccccc1)C2=O (stereo not drawn)
21.5 µM: [49]
inactive: [1] 24 µM | [2] 14.1 µM | [3] 18.9 µM | [4] 30.6 µM | [5] 24.5 µM | [6] 33.4 µM | [7] 28.4 µM | [8] 41.1 µM | [9] 12.3 µM | [10] 21 µM | [11] 32.8 µM | [12] 65.9 µM | [13] 34.3 µM | [14] 24.7 µM | [15] 20.8 µM | [16] 18.3 µM | [17] 35.5 µM | [18] 32.5 µM | [19] 26.1 µM | [20] 22.2 µM | [21] 30.3 µM | [22] 19.7 µM | [23] 50.5 µM | [24] 29.5 µM | [25] 39.9 µM | [26] 34.4 µM | [27] 20 µM | [28] 35.2 µM | [29] 30.3 µM | [30] 33.9 µM | [31] 28.1 µM | [32] 45.2 µM | [33] 17 µM | [34] 45.1 µM | [35] 24.7 µM | [36] 20.7 µM | [37] 15.2 µM | [38] 25.8 µM | [39] 16.4 µM | [40] 17.9 µM | [41] 23.6 µM | [42] > 100 µM | [43] 25.8 µM | [44] 21.1 µM | [45] 30.5 µM | [46] 27.2 µM | [47] 33 µM | [48] 24.4 µM | [50] 43 µM | [51] 29 µM | [52] 23.1 µM | [53] 44.2 µM | [54] 20 µM | [55] 34.8 µM

CC(=O)OCCOCNC(=S)N/N=C(\C)c1cnccn1
22.1 µM: [49]
inactive: [1] 22.9 µM | [2] 28.1 µM | [3] 23.7 µM | [4] 73.1 µM | [6] 33.5 µM | [7] 13 µM | [8] 13.6 µM | [9] 24.5 µM | [10] 30.5 µM | [11] 26.9 µM | [56] 23.2 µM | [12] 27.4 µM | [13] 16.8 µM | [14] 14.1 µM | [15] 25.2 µM | [16] 57.1 µM | [17] 29.8 µM | [18] 30.2 µM | [19] 25.4 µM | [20] 13.5 µM | [21] 13.2 µM | [57] 42.4 µM | [22] 15.9 µM | [23] 24.5 µM | [24] 43.1 µM | [25] 58.6 µM | [26] 28.4 µM | [27] 41 µM | [28] 34.3 µM | [29] 22.3 µM | [30] 46.5 µM | [31] > 100 µM | [32] 17.5 µM | [33] 17.1 µM | [34] 42.5 µM | [35] > 100 µM | [36] 18.4 µM | [37] 43.3 µM | [58] 28.1 µM | [38] 36.3 µM | [39] 15.7 µM | [40] > 100 µM | [41] 20.9 µM | [42] 29 µM | [43] 29.6 µM | [44] 29.7 µM | [45] 33.4 µM | [46] 30.1 µM | [47] 7.53 µM | [50] 34.3 µM | [51] 18.9 µM | [52] 15.4 µM | [53] > 100 µM | [54] 58.2 µM | [55] 23.9 µM

COc1cccc(/C(Cl)=C(\C=O)c2cccc(OC)c2)c1
5.6 µM: [49]
inactive: [1] 5.65 µM | [2] 11.9 µM | [3] 15.4 µM | [4] 11.3 µM | [5] 12.4 µM | [6] 8.24 µM | [7] 3.97 µM | [8] 6.9 µM | [9] 8.17 µM | [10] 4.06 µM | [11] 21 µM | [56] 5.12 µM | [12] 12.3 µM | [13] 3.12 µM | [14] 7.74 µM | [15] 2.68 µM | [16] 6.71 µM | [17] 17.4 µM | [19] 16.4 µM | [20] 4.43 µM | [21] 20.9 µM | [57] 4.62 µM | [22] 12.7 µM | [23] 12.1 µM | [24] 15.3 µM | [25] 19.3 µM | [26] 20.4 µM | [27] 12.3 µM | [28] 3.28 µM | [29] 14.9 µM | [30] 20 µM | [31] 4.24 µM | [32] 3.88 µM | [33] 13.1 µM | [34] 11.7 µM | [35] 13.8 µM | [36] 5.35 µM | [37] 12.8 µM | [58] 11 µM | [38] 12.2 µM | [39] 2.69 µM | [40] 15.4 µM | [41] 12.7 µM | [42] 13.2 µM | [43] 10.1 µM | [44] 14 µM | [45] 14.8 µM | [46] 10.7 µM | [47] 19.6 µM | [48] 39 µM | [50] 8.43 µM | [51] 13 µM | [52] 11.5 µM | [53] 13.8 µM | [54] 5.77 µM | [55] 6.81 µM
active: [18] 0.946 µM

O=c1/c(=C/c2ccccc2[N+](=O)[O-])sc2nnc(-c3ccco3)n12
inactive: [1] 19 µM | [2] 30.4 µM | [3] 17.7 µM | [4] 22.4 µM | [5] > 100 µM | [6] 25.8 µM | [7] 23.1 µM | [8] 52.5 µM | [9] 28.7 µM | [10] 50.9 µM | [11] 25.1 µM | [56] 16.8 µM | [12] 19.3 µM | [13] 20 µM | [14] 31.6 µM | [15] 18.2 µM | [16] 16.9 µM | [17] 18.7 µM | [18] 23 µM | [19] 25.1 µM | [20] 25.8 µM | [21] 91 µM | [22] 19.5 µM | [23] 19.8 µM | [24] 33.9 µM | [25] > 100 µM | [26] > 100 µM | [27] 28.1 µM | [28] 26.9 µM | [29] 36.2 µM | [30] 47.4 µM | [31] 25.7 µM | [32] 20.1 µM | [33] 18 µM | [34] 21.8 µM | [35] 18.4 µM | [36] 32.3 µM | [37] 17.6 µM | [58] 23 µM | [38] 23.6 µM | [39] 24.8 µM | [40] 15.8 µM | [41] 25.2 µM | [42] 22.4 µM | [43] 21.2 µM | [44] 34.5 µM | [45] 42 µM | [46] 17 µM | [47] 50.2 µM | [48] 39.7 µM | [50] 29.2 µM | [51] 30.5 µM | [52] 19.1 µM | [53] 22.4 µM | [54] 22.2 µM | [55] 20.4 µM
28.2 µM: [49]

NC(=O)C(N)=O
> 100 µM: [49]
inactive: [1] > 100 µM | [2] > 100 µM | [3] > 100 µM | [4] > 100 µM | [5] > 100 µM | [7] > 100 µM | [8] > 100 µM | [9] > 100 µM | [10] > 100 µM | [56] > 100 µM | [12] > 100 µM | [13] > 100 µM | [14] > 100 µM | [15] > 100 µM | [16] > 100 µM | [17] > 100 µM | [18] > 100 µM | [19] > 100 µM | [20] > 100 µM | [21] > 100 µM | [57] > 100 µM | [22] > 100 µM | [23] > 100 µM | [24] > 100 µM | [25] > 100 µM | [26] > 100 µM | [28] > 100 µM | [29] > 100 µM | [30] > 100 µM | [31] > 100 µM | [32] > 100 µM | [33] > 100 µM | [34] > 100 µM | [35] > 100 µM | [36] > 100 µM | [37] > 100 µM | [38] > 100 µM | [39] > 100 µM | [40] > 100 µM | [41] > 100 µM | [42] > 100 µM | [43] > 100 µM | [44] > 100 µM | [45] > 100 µM | [46] > 100 µM | [47] > 100 µM | [50] > 100 µM | [51] > 100 µM | [52] > 100 µM | [54] > 100 µM | [55] > 100 µM
